Measured values reported in US5718923A, “Melt granulated sucralfate preparations and a process for their production” (Chugai Seiyaku Kabushiki Kaisha, priority 1994, dated 1998).

Legend:
Type in all cases: physicochemical
[1] = dispersed particle size (size of particles as dispersed in water), laser diffraction particle size analyzer
Experimental: Each of the samples thus prepared was measured for the dispersed particle size (i.e., the size of particles as dispersed in water) by means of a laser diffraction particle size analyzer (Nikkiso Co., Ltd.); in addition, the samples were analyzed for average size (at 50% cumulative frequency) and the proportion of particles not larger than 50 μm. […]

[2] = specific surface area measurement, nitrogen gas as adsorbate; conditions: Table 2
Experimental: Each of the samples thus prepared was measured for the dispersed particle size by means of a laser diffraction particle size analyzer; in addition, a specific surface area measurement was conducted before and after the granulation by means of a specific surface area measuring instrument (Shimadzu Corp.) using nitrogen gas as adsorbate.

[3] = particle size of the comminuted powder (hammer mill); conditions: comminuted with a hammer mill at about 3,000-3,600 rpm
Experimental: A dry powder sucralfate (as specified in Pharmacopoeia of Japan, JP) was comminuted with a hammer mill at about 3,000-3,600 rpm.

[4] = Table 2, sucralfate:polyethylene glycol mixing proportions
[5] = Table 2, sucralfate:polyethylene glycol mixing proportions, melt granulated at 300 rpm to 65° C.

sucralfate [Comminuted sucralfate powder]
Dispersed particle size, Average ([1]; Table 1, average size at 50% cumulative frequency, dispersed in water): 4.4 μm
Dispersed particle size, Percent 50 μm and less ([1]; Table 1, dispersed in water): 100.0%
Dispersed particle size, Percent 50 μm and less [1, 4]: 100.0%
Dispersed particle size, Average [1, 5]: 4.4 μm
Specific surface area [2]: 5.1 m^2 /g
particle size of comminuted powder, in words [3]: entirely composed of particles not larger than 50 μm

sucralfate [Sucralfate of JP]
Dispersed particle size, Percent 50 μm and less [1, 4]: 86.2%
Dispersed particle size, Average [1, 5]: 18.6 μm
Specific surface area [2]: 1.6 m^2 /g
